How the values were obtained:
[1] = molecular target: Serine/threonine-protein kinase Nek4 (Homo sapiens) (UniProt P51957); conditions: Compound concentration 1000.0 nM
[2] = molecular target: Interleukin-1 receptor-associated kinase 4 (Homo sapiens) (UniProt Q9NWZ3); conditions: Compound concentration 1000.0 nM
[3] = molecular target: Serine/threonine-protein kinase LATS1 (Homo sapiens) (UniProt O95835); conditions: Compound concentration 1000.0 nM
[4] = molecular target: MAP kinase-activated protein kinase 5 (Homo sapiens) (UniProt Q8IW41); conditions: Compound concentration 1000.0 nM
[5] = molecular target: Fibroblast growth factor receptor 3 (Homo sapiens) (UniProt P22607); conditions: Compound concentration 1000.0 nM
Chain of Fibroblast growth factor receptor 3 (Homo sapiens) (P22607 23-806 limits assumed): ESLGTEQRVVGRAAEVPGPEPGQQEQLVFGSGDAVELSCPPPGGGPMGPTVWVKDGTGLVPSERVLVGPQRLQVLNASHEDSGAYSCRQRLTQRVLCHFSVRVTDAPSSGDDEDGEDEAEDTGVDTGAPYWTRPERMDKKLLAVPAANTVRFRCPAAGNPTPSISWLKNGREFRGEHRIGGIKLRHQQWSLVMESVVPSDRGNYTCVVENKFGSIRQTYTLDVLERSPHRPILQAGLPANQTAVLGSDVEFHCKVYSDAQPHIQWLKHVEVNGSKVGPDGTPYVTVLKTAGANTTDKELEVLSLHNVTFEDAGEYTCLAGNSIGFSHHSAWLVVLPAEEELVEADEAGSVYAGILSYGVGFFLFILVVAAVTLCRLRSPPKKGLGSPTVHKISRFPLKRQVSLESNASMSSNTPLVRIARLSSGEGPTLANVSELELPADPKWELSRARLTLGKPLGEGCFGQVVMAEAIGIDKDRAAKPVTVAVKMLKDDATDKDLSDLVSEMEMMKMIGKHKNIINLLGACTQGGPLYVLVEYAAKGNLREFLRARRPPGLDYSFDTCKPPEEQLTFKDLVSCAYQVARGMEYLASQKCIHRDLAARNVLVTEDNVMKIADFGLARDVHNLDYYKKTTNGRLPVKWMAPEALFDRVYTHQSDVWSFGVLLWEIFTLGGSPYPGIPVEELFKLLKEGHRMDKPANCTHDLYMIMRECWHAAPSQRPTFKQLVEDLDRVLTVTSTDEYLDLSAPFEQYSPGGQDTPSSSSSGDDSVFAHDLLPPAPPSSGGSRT

[6] = molecular target: Calcium/calmodulin-dependent protein kinase type IV (Homo sapiens) (UniProt Q16566); conditions: Compound concentration 1000.0 nM
[7] = molecular target: AP2-associated protein kinase 1 (Homo sapiens) (UniProt Q2M2I8); conditions: Compound concentration 1000.0 nM
[8] = molecular target: Mast/stem cell growth factor receptor Kit (Homo sapiens) (UniProt P10721); conditions: Compound concentration 1000.0 nM
[9] = tested on: Mast/stem cell growth factor receptor Kit (Homo sapiens), P10721 [V559D,V654A]; conditions: Compound concentration 1000.0 nM
[10] = molecular target: Alpha-1A adrenergic receptor (Homo sapiens) (UniProt P35348); conditions: Compound concentration 10.0 uM
Chain of Alpha-1A adrenergic receptor (Homo sapiens) (P35348 whole entry): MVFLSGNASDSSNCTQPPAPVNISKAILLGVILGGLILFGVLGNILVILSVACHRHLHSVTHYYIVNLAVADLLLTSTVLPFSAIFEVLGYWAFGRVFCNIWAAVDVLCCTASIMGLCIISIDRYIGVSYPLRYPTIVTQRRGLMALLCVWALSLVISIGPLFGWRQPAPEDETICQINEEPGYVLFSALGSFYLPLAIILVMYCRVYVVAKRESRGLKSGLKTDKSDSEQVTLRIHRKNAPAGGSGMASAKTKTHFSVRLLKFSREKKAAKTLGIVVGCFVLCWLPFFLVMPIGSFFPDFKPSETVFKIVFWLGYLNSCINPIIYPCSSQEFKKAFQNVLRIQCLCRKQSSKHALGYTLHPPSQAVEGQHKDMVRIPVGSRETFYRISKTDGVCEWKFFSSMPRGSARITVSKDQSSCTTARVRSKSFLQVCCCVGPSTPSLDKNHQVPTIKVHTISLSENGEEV

[11] = molecular target: Tyrosine-protein kinase JAK1 (Homo sapiens) (UniProt P23458); conditions: Compound concentration 1000.0 nM
[12] = molecular target: MAP kinase-interacting serine/threonine-protein kinase 2 (Homo sapiens) (UniProt Q9HBH9); conditions: Compound concentration 1000.0 nM
[13] = tested on: Epidermal growth factor receptor (Homo sapiens), P00533 [G719S]; conditions: Compound concentration 1000.0 nM
[14] = molecular target: Mitogen-activated protein kinase kinase kinase 20 (Homo sapiens) (UniProt Q9NYL2); conditions: Compound concentration 1000.0 nM
Chain of Mitogen-activated protein kinase kinase kinase 20 (Homo sapiens) (Q9NYL2 2-800 limits assumed): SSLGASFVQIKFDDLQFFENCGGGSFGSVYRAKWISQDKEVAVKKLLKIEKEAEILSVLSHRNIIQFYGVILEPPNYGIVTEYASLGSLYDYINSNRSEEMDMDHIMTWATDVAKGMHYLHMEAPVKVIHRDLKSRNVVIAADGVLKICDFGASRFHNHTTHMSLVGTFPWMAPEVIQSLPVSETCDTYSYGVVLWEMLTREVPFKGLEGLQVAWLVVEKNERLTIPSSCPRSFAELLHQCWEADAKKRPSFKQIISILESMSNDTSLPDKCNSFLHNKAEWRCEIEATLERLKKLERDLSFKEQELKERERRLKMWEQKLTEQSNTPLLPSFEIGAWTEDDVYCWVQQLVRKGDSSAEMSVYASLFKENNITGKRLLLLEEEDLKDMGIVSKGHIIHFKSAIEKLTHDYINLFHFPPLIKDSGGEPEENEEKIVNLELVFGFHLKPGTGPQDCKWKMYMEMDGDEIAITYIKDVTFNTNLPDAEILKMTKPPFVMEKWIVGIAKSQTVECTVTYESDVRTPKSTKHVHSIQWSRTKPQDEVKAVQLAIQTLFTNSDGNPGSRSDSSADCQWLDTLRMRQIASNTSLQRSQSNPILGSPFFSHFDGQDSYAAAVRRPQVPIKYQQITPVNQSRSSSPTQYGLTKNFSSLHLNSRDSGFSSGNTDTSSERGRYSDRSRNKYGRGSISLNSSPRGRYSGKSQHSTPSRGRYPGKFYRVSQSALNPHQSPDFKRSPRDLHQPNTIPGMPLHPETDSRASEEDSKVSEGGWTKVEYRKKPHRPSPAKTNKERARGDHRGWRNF

[15] = molecular target: Mitogen-activated protein kinase 1 (Homo sapiens) (UniProt P28482); conditions: Compound concentration 1000.0 nM
[16] = molecular target: LIM domain kinase 1 (Homo sapiens) (UniProt P53667); conditions: Compound concentration 1000.0 nM
[17] = molecular target: Leukocyte tyrosine kinase receptor (Homo sapiens) (UniProt P29376); conditions: Compound concentration 1000.0 nM
Chain of Leukocyte tyrosine kinase receptor (Homo sapiens) (P29376 whole entry): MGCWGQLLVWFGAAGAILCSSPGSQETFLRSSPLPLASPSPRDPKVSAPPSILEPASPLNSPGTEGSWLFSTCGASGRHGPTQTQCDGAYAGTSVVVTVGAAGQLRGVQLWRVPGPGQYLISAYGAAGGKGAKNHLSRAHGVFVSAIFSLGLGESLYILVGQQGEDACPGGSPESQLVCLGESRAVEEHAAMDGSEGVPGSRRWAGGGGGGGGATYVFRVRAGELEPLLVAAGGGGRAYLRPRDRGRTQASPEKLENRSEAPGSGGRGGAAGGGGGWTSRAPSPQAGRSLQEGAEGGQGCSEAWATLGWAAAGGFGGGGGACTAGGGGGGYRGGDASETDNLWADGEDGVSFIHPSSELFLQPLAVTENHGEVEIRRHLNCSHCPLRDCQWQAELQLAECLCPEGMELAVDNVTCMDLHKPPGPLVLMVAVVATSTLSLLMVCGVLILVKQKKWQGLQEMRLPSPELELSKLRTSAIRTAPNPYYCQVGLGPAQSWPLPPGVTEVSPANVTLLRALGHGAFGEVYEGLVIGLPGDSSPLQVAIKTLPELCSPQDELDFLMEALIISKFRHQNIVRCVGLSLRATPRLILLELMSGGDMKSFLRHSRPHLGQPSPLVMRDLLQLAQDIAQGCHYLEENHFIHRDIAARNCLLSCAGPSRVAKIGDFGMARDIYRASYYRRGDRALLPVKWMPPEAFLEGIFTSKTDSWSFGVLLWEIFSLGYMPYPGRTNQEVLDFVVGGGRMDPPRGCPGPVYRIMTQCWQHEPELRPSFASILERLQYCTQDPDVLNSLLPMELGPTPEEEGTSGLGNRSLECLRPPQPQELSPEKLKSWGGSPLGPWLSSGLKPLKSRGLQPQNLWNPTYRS

[18] = molecular target: Dual specificity mitogen-activated protein kinase kinase 7 (Homo sapiens) (UniProt O14733); conditions: Compound concentration 1000.0 nM
[19] = molecular target: Tyrosine-protein kinase Srms (Homo sapiens) (UniProt Q9H3Y6); conditions: Compound concentration 1000.0 nM
[20] = molecular target: Ankyrin repeat and protein kinase domain-containing protein 1 (Homo sapiens) (UniProt Q8NFD2); conditions: Compound concentration 1000.0 nM
Chain of Ankyrin repeat and protein kinase domain-containing protein 1 (Homo sapiens) (Q8NFD2 whole entry, the tested form may be a part): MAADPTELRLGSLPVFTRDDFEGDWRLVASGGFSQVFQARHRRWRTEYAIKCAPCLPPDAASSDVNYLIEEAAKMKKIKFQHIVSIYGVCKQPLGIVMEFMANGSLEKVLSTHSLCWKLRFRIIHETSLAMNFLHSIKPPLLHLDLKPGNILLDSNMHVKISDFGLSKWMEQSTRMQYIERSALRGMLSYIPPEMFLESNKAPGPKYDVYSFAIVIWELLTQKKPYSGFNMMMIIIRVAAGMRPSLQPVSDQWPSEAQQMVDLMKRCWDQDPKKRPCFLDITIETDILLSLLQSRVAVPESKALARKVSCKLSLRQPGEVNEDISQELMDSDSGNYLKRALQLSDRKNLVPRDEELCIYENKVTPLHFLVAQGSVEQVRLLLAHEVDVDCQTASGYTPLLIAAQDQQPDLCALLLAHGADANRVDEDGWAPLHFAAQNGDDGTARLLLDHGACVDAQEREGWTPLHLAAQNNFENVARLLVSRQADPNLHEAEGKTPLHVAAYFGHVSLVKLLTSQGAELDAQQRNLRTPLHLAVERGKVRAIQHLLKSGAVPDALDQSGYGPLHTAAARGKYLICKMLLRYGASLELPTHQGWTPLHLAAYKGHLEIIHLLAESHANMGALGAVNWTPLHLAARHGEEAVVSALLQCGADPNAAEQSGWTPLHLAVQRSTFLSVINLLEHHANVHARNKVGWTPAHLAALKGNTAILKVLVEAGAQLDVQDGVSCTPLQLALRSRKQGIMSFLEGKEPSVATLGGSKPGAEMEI

[21] = molecular target: Tyrosine-protein kinase Lck (Homo sapiens) (UniProt P06239); conditions: Compound concentration 1000.0 nM
[22] = molecular target: Mu-type opioid receptor (Homo sapiens) (UniProt P35372); conditions: Compound concentration 10.0 uM
[23] = tested on: Receptor-type tyrosine-protein kinase FLT3 (Homo sapiens), P36888 [UNDEFINED MUTATION]; conditions: Compound concentration 1000.0 nM
[24] = tested on: Receptor-type tyrosine-protein kinase FLT3 (Homo sapiens), P36888 [K663Q]; conditions: Compound concentration 1000.0 nM
[25] = tested on: Tyrosine-protein kinase ABL1 (Homo sapiens), P00519 [Q252H]; conditions: Compound concentration 1000.0 nM
[26] = molecular target: Myosin-IIIa (Homo sapiens) (UniProt Q8NEV4); conditions: Compound concentration 1000.0 nM
[27] = molecular target: Serine/threonine-protein kinase/endoribonuclease IRE1 (Homo sapiens) (UniProt O75460); conditions: Compound concentration 1000.0 nM
[28] = tested on: Phosphatidylinositol 4,5-bisphosphate 3-kinase catalytic subunit alpha isoform (Homo sapiens), P42336 [E545A]; conditions: Compound concentration 1000.0 nM
[29] = tested on: Epidermal growth factor receptor (Homo sapiens), P00533 [UNDEFINED MUTATION]; conditions: Compound concentration 1000.0 nM
[30] = molecular target: Dual specificity protein kinase CLK3 (Homo sapiens) (UniProt P49761); conditions: Compound concentration 1000.0 nM
Chain of Dual specificity protein kinase CLK3 (Homo sapiens) (P49761 whole entry, looked up): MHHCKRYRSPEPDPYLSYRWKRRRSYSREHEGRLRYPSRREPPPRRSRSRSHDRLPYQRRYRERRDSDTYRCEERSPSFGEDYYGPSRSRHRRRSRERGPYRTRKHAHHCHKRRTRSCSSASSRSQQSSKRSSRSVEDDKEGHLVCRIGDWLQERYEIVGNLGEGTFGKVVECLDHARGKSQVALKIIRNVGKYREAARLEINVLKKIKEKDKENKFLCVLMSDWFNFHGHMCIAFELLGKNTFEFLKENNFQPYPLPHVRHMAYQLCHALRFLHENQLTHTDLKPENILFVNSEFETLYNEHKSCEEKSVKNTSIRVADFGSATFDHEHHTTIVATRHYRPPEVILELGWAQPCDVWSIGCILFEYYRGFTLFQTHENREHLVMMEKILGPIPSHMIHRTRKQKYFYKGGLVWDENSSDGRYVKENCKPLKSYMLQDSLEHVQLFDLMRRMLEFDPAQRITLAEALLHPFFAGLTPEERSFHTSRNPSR

[31] = molecular target: Ribosomal protein S6 kinase alpha-2 (Homo sapiens) (UniProt Q15349); conditions: Compound concentration 1000.0 nM
[32] = molecular target: Calcium/calmodulin-dependent protein kinase type 1D (Homo sapiens) (UniProt Q8IU85); conditions: Compound concentration 1000.0 nM
[33] = molecular target: Serine/threonine-protein kinase PAK 2 (Homo sapiens) (UniProt Q13177); conditions: Compound concentration 1000.0 nM
[34] = molecular target: Serine/threonine-protein kinase MRCK gamma (Homo sapiens) (UniProt Q6DT37); conditions: Compound concentration 1000.0 nM
[35] = molecular target: Casein kinase I isoform alpha-like (Homo sapiens) (UniProt Q8N752); conditions: Compound concentration 1000.0 nM
[36] = molecular target: Vascular endothelial growth factor receptor 3 (Homo sapiens) (UniProt P35916); conditions: Compound concentration 1000.0 nM
[37] = molecular target: Mitogen-activated protein kinase kinase kinase 13 (Homo sapiens) (UniProt O43283); conditions: Compound concentration 1000.0 nM
[38] = molecular target: Mitogen-activated protein kinase kinase kinase kinase 2 (Homo sapiens) (UniProt Q12851); conditions: Compound concentration 1000.0 nM
[39] = molecular target: Serine/threonine-protein kinase Nek10 (Homo sapiens) (UniProt Q6ZWH5); conditions: Compound concentration 1000.0 nM
[40] = molecular target: Mitogen-activated protein kinase kinase kinase 19 (Homo sapiens) (UniProt Q56UN5); conditions: Compound concentration 1000.0 nM
[41] = molecular target: Transient receptor potential cation channel subfamily M member 6 (Homo sapiens) (UniProt Q9BX84); conditions: Compound concentration 1000.0 nM
[42] = molecular target: Ephrin type-A receptor 4 (Homo sapiens) (UniProt P54764); conditions: Compound concentration 1000.0 nM
[43] = molecular target: Protein kinase C delta type (Homo sapiens) (UniProt Q05655); conditions: Compound concentration 1000.0 nM
Chain of Protein kinase C delta type (Homo sapiens) (Q05655 whole entry, looked up): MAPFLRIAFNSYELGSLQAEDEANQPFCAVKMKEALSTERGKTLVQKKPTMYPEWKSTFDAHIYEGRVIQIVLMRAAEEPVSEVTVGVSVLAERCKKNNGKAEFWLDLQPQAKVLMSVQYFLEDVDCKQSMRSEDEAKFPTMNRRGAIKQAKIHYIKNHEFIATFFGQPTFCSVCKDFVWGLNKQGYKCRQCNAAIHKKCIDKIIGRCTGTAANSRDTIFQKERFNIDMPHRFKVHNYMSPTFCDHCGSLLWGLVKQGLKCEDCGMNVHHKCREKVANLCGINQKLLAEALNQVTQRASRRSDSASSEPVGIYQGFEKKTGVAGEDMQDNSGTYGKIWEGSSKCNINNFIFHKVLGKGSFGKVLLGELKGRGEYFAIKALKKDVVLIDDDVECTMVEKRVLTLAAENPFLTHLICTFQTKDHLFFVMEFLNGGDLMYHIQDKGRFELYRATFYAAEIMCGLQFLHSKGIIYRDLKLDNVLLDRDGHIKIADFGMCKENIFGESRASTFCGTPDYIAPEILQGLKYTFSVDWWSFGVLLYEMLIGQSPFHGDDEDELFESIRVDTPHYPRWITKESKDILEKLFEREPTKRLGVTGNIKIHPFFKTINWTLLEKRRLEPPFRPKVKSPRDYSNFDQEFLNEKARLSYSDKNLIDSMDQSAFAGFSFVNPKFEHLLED

[44] = molecular target: Tyrosine-protein kinase Mer (Homo sapiens) (UniProt Q12866); conditions: Compound concentration 1000.0 nM
[45] = molecular target: MAP/microtubule affinity-regulating kinase 3 (Homo sapiens) (UniProt P27448); conditions: Compound concentration 1000.0 nM

COc1ccc2c(O[C@@H]3C[C@H]4C(=O)N[C@]5(C(=O)O)CC5/C=C\CCCCC[C@H](NC(=O)OC5CCCC5)C(=O)N4C3)cc(-c3csc(NC(=O)C(C)C)n3)nc2c1C (stereo not given in full) [BI 1230] gave a residual activity [1] of 93%, a residual activity [2] of 71% and a residual activity [3] of 100%. For the same compound, the residual activity [4] was 88%, the residual activity [5] was 100% and the residual activity [6] was 95%. The residual activity [7] was 100%, the residual activity [8] was 100% and the residual activity [9] was 74%. It also gave an inhibition [10] of 1.41%, a residual activity [11] of 100% and a residual activity [12] of 70%. For the same compound, the residual activity [13] was 76%, the residual activity [14] was 83% and the residual activity [15] was 89%. The residual activity [16] was 100%, the residual activity [17] was 100% and the residual activity [18] was 81%. It also gave a residual activity [19] of 98%, a residual activity [20] of 79% and a residual activity [21] of 100%. The inhibition [22] was 16.6%, the residual activity [23] was 97% and the residual activity [24] was 81%. For the same compound, the residual activity [25] was 70%, the residual activity [26] was 100% and the residual activity [27] was 79%. The residual activity [28] was 100%, the residual activity [29] was 75% and the residual activity [30] was 100%. For the same compound, the residual activity [31] was 100%, the residual activity [32] was 100% and the residual activity [33] was 91%. The residual activity [34] was 100%, the residual activity [35] was 100% and the residual activity [36] was 100%. For the same compound, the residual activity [37] was 86%, the residual activity [38] was 100% and the residual activity [39] was 79%. For the same compound, the residual activity [40] was 70%, the residual activity [41] was 100% and the residual activity [42] was 100%. The residual activity [43] was 84%, the residual activity [44] was 70% and the residual activity [45] was 95%.
Compound O=C(N[C@H]1CCCCC/C=C\C2C[C@@]2(C(=O)O)NC(=O)[C@@H]2C[C@@H](Oc3ccncc3)CN2C1=O)OC1CCCC1 (stereo not given in full) [BI 1675] has a residual activity [1] of 79%, a residual activity [2] of 88% and a residual activity [3] of 99%. It also gave a residual activity [4] of 96%, a residual activity [5] of 88% and a residual activity [6] of 90%. For the same compound, the residual activity [7] was 77%, the residual activity [8] was 91% and the residual activity [9] was 63%. The inhibition [10] was 25.7%, the residual activity [11] was 96% and the residual activity [12] was 75%. It also gave a residual activity [13] of 63%, a residual activity [14] of 90% and a residual activity [15] of 72%. It also gave a residual activity [16] of 92%, a residual activity [17] of 99% and a residual activity [18] of 91%. It also gave a residual activity [19] of 100%, a residual activity [20] of 100% and a residual activity [21] of 100%. It also gave an inhibition [22] of -8.64%, a residual activity [23] of 100% and a residual activity [24] of 85%. For the same compound, the residual activity [25] was 65%, the residual activity [26] was 94% and the residual activity [27] was 80%. The residual activity [28] was 100%, the residual activity [29] was 49% and the residual activity [30] was 93%. The residual activity [31] was 75%, the residual activity [32] was 94% and the residual activity [33] was 79%. It also gave a residual activity [34] of 90%, a residual activity [35] of 100% and a residual activity [36] of 93%. The residual activity [37] was 100%, the residual activity [38] was 100% and the residual activity [39] was 81%. It also gave a residual activity [40] of 93%, a residual activity [41] of 98% and a residual activity [42] of 93%. It also gave a residual activity [43] of 100%, a residual activity [44] of 64% and a residual activity [45] of 100%.
